# Measurements taken from patent US20240209028A1, “CNP COMPOUNDS” (priority 2022, published 2024).
# Several values for one entry are separate records, joined by “and”; a condition that tells them apart may be missing. Equal values may be shown once. Starred links: 1 amine or outer side, 2 acyl side, 3 side chain; linkers in the order of their positions; H or OH if unused. Positions of bridges follow the written chain, without caps; N, C: chain ends. Residues, ends and D or L forms follow the SMILES beside them. *: point of attachment. C18 diacid = O=C(O)CCCCCCCCCCCCCCCCC(=O)*; γGlu = O=C(O)[C@H](CCC(=O)[*:2])N[*:1]; AEEA = NCCOCCOCC(=O)O
# Experiment: High-Molecular-Weight-Protein (HMWP) formation by SEC-UPLC
# Type: physicochemical
# Conditions: increase over two weeks at 37° C.
# Method: In order to assess the propensity of CNP compounds to form covalent dimers or oligomers when formulated the High-Molecular-Weight-Protein content of CNP compound formulations at pH 4.0 and 6.5 were determined.
# Procedure: The relative amount of covalent HMWP was assessed using SEC-UPLC. SEC-UPLC was conducted using a Waters UPLC Protein BEH SEC column, 125A, 4.6×150 mm, 1.7 μm, with isocratic elution (0.3 M NaCl, 10 mM NaH2PO4 and 5 mM H3PO4, 50% (v/v) isopropanol, pH 2.4) with a flow rate of 0.3 mL/min, a column temperature at 50° C. with UV-detection at 215 nm. The total area of peaks eluting prior to the monomeric main peak was termed HMWP and given on a percentage scale relative to the total peptide peak area.
# Results: HMWP Formation Following 2-Weeks Quiescent Incubation at 37° C.: Samples at pH 4.0 were prepared as described in Example 5 and the amount of HMWP was determined as described above. Samples were incubated for two weeks at 37° C. and the amount of HMWP was determined again. The increase in HMWP over two weeks incubation at 37° C. are reported in Table 10 (in case the incubation period deviated from two weeks the increase in HMWP was normalized to two weeks assuming a constant formation rate).
# Samples at pH 6.5 were prepared as described in Example 5 and the amount of HMWP was determined as described above. Samples were incubated for two weeks at 37° C. and the amount of HMWP was determined again. The increase in HMWP over two weeks incubation at 37° C. are reported in Table 11 (in case the incubation period deviated from two weeks the increase in HMWP was normalized to two weeks assuming a constant formation rate).
SMILES,"2-Week HMWP formation at pH 4.0 (%), % relative to total peak area","2-Week HMWP formation at pH 6.5 (%), % relative to total peak area (pH 6.5)"
CC[C@H](C)[C@@H]1NC(=O)[C@H](CCCNC(=N)N)NC(=O)[C@H](CC(=O)O)NC(=O)[C@H](CC(C)C)NC(=O)[C@@H]2CCCN2C(=O)[C@H](CC(C)C)NC(=O)CNC(=O)[C@H](Cc2ccccc2)NC(=O)[C@@H](NC(=O)CNC(=O)[C@H](CO)NC(=O)[C@H](CO)NC(=O)[C@H](CC(C)C)NC(=O)CNC(=O)[C@H](CCCCN)NC(=O)[C@H](CCCCN)NC(=O)[C@H](CCC(N)=O)NC(=O)[C@H](C)NC(=O)CNC(=O)[C@H](CCCCN)NC(=O)[C@H](Cc2ccc(O)cc2)NC(=O)[C@H](CCCCN)NC(=O)[C@H](CCCNC(=N)N)NC(=O)[C@H](C)NC(=O)[C@H](CCC(N)=O)NC(=O)[C@@H]2CCCN2C(=O)[C@H](Cc2c[nH]cn2)NC(=O)[C@H](CCC(=O)O)NC(=O)[C@H](CCC(N)=O)NC(=O)COCCOCCNC(=O)COCCOCCNC(=O)CC[C@H](NC(=O)CC[C@H](NC(=O)CC[C@H](NC(=O)CC[C@H](NC(=O)CCCCCCCCCCCCCCCCC(=O)O)C(=O)O)C(=O)O)C(=O)O)C(=O)O)CSSC[C@@H](C(=O)O)NC(=O)CNC(=O)[C@H](CC(C)C)NC(=O)CNC(=O)[C@H](CO)NC(=O)[C@H](CC(C)C)NC(=O)[C@H](CO)NC(=O)CNC1=O [compound 1473] ({C18 diacid-γGlu-γGlu-γGlu-γGlu-AEEA-AEEA}-QEHPQARKYKGAQKKGLSSGCFGLPLDRIGSLSGLGC-OH; disulfide 21-37; C-terminus assumed),0.9% and 1.26%,
CC[C@H](C)[C@@H]1NC(=O)[C@H](CCCNC(=N)N)NC(=O)[C@H](CC(=O)O)NC(=O)[C@H](CC(C)C)NC(=O)[C@@H]2CCCN2C(=O)[C@H](CC(C)C)NC(=O)CNC(=O)[C@H](Cc2ccccc2)NC(=O)[C@@H](NC(=O)CNC(=O)[C@H](CCCCN)NC(=O)[C@H](CO)NC(=O)[C@H](CC(C)C)NC(=O)CNC(=O)[C@H](CCCCN)NC(=O)[C@H](CCCCN)NC(=O)[C@H](CCC(N)=O)NC(=O)[C@H](C)NC(=O)CNC(=O)[C@H](CCCCN)NC(=O)[C@H](Cc2ccc(O)cc2)NC(=O)[C@H](CCCCN)NC(=O)[C@H](CCCNC(=N)N)NC(=O)[C@H](C)NC(=O)[C@H](CCC(N)=O)NC(=O)[C@@H]2CCCN2C(=O)[C@H](Cc2c[nH]cn2)NC(=O)[C@H](CCC(=O)O)NC(=O)[C@H](CCC(N)=O)NC(=O)COCCOCCNC(=O)COCCOCCNC(=O)CC[C@H](NC(=O)CC[C@H](NC(=O)CC[C@H](NC(=O)CC[C@H](NC(=O)CC[C@H](NC(=O)CCCCCCCCCCCCCCCCC(=O)O)C(=O)O)C(=O)O)C(=O)O)C(=O)O)C(=O)O)CSSC[C@@H](C(=O)O)NC(=O)CNC(=O)[C@H](CC(C)C)NC(=O)CNC(=O)[C@H](CO)NC(=O)[C@H](CC(C)C)NC(=O)[C@H](CO)NC(=O)CNC1=O [compound 1474] ({C18 diacid-γGlu-γGlu-γGlu-γGlu-γGlu-AEEA-AEEA}-QEHPQARKYKGAQKKGLSKGCFGLPLDRIGSLSGLGC-OH; disulfide 21-37; C-terminus assumed),1.6%,
CC[C@H](C)[C@@H]1NC(=O)[C@H](CCCNC(=N)N)NC(=O)[C@H](CCC(=O)O)NC(=O)[C@H](CC(C)C)NC(=O)[C@@H]2CCCN2C(=O)[C@H](CC(C)C)NC(=O)CNC(=O)[C@H](Cc2ccccc2)NC(=O)[C@@H](NC(=O)CNC(=O)[C@H](CCC(N)=O)NC(=O)[C@H](CO)NC(=O)[C@H](CC(C)C)NC(=O)CNC(=O)[C@H](CCCCN)NC(=O)[C@H](CCCCN)NC(=O)[C@H](CCC(N)=O)NC(=O)[C@H](C)NC(=O)CNC(=O)[C@H](CCCCN)NC(=O)[C@H](Cc2ccc(O)cc2)NC(=O)[C@H](CCCCN)NC(=O)[C@H](CCCNC(=N)N)NC(=O)[C@H](C)NC(=O)COCCOCCNC(=O)COCCOCCNC(=O)COCCOCCNC(=O)COCCOCCNC(=O)CC[C@H](NC(=O)CC[C@H](NC(=O)CC[C@H](NC(=O)CC[C@H](NC(=O)CC[C@H](NC(=O)CCCCCCCCCCCCCCCCC(=O)O)C(=O)O)C(=O)O)C(=O)O)C(=O)O)C(=O)O)CSSC[C@@H](C(=O)O)NC(=O)CNC(=O)[C@H](CC(C)C)NC(=O)CNC(=O)[C@H](CO)NC(=O)[C@H](CC(C)C)NC(=O)[C@H](CO)NC(=O)CNC1=O [compound 1477] ({C18 diacid-γGlu-γGlu-γGlu-γGlu-γGlu-AEEA-AEEA-AEEA-AEEA}-ARKYKGAQKKGLSQGCFGLPLERIGSLSGLGC-OH; disulfide 16-32),,1.83%
CC[C@H](C)[C@@H]1NC(=O)[C@H](CCCNC(=N)N)NC(=O)[C@H](CC(=O)O)NC(=O)[C@H](CC(C)C)NC(=O)[C@@H]2CCCN2C(=O)[C@H](CC(C)C)NC(=O)CNC(=O)[C@H](Cc2ccccc2)NC(=O)[C@@H](NC(=O)CNC(=O)[C@H](CCC(N)=O)NC(=O)[C@H](CO)NC(=O)[C@H](CC(C)C)NC(=O)CNC(=O)[C@H](CCCCN)NC(=O)[C@H](CCCCN)NC(=O)[C@H](CCC(N)=O)NC(=O)[C@H](C)NC(=O)CNC(=O)[C@H](CCCCN)NC(=O)[C@H](Cc2ccc(O)cc2)NC(=O)COCCOCCNC(=O)COCCOCCNC(=O)COCCOCCNC(=O)COCCOCCNC(=O)CC[C@H](NC(=O)CC[C@H](NC(=O)CCCCCCCCCCCCCCCCC(=O)O)C(=O)O)C(=O)O)CSSC[C@@H](C(=O)O)NC(=O)CNC(=O)[C@H](CC(C)C)NC(=O)CNC(=O)[C@H](CO)NC(=O)[C@H](CC(C)C)NC(=O)[C@H](CO)NC(=O)CNC1=O [compound 1478] ({C18 diacid-γGlu-γGlu-AEEA-AEEA-AEEA-AEEA}-YKGAQKKGLSQGCFGLPLDRIGSLSGLGC-OH; disulfide 13-29; C-terminus assumed),1.98%,
CC[C@H](C)[C@@H]1NC(=O)[C@H](CCCNC(=N)N)NC(=O)[C@H](CCC(=O)O)NC(=O)[C@H](CC(C)C)NC(=O)[C@@H]2CCCN2C(=O)[C@H](CC(C)C)NC(=O)CNC(=O)[C@H](Cc2ccccc2)NC(=O)[C@@H](NC(=O)CNC(=O)[C@H](CCC(N)=O)NC(=O)[C@H](CO)NC(=O)CNC(=O)CNC(=O)[C@H](CCCCN)NC(=O)[C@H](CCCCN)NC(=O)[C@H](CCC(N)=O)NC(=O)[C@H](C)NC(=O)CNC(=O)[C@H](CCCCN)NC(=O)[C@H](Cc2ccc(O)cc2)NC(=O)COCCOCCNC(=O)COCCOCCNC(=O)COCCOCCNC(=O)COCCOCCNC(=O)CC[C@H](NC(=O)CC[C@H](NC(=O)CCCCCCCCCCCCCCCCC(=O)O)C(=O)O)C(=O)O)CSSC[C@@H](C(=O)O)NC(=O)CNC(=O)[C@H](CC(C)C)NC(=O)CNC(=O)[C@H](CO)NC(=O)[C@H](CC(C)C)NC(=O)[C@H](CO)NC(=O)CNC1=O [compound 1489] ({C18 diacid-γGlu-γGlu-AEEA-AEEA-AEEA-AEEA}-YKGAQKKGGSQGCFGLPLERIGSLSGLGC-OH; disulfide 13-29),2.12%,
